Reference: patent US4920103A, “Modifications of mycinose and 3-O-demethylmycinose in tylosin-type macrolides” (Eli Lilly and Company, priority 1986, dated 1990)
Converted amounts (≈) assume the structure as drawn. Read-outs that look alike come from different tables or passages of the source.

Tests used:
Type in all cases: cell-based
[1] = tested on: Pseudomonas aeruginosa X239; assay: MIC, standard agar-dilution assay, P. aeruginosa X239
Method: (§1) The MIC's in Table II were determined by standard agar-dilution assays. The MIC's in Table III were obtained using conventional broth-dilution microtiter tests.

Escherichia coli EC14 = assay: MIC, standard agar-dilution assay, E. coli EC14
Method: as §1

[2] = tested on: Streptococcus Group D X66; assay: MIC, standard agar-dilution assay, Streptococcus Group D X66
Method: as §1

[3] = tested on: Staphylococcus aureus V41; assay: MIC, standard agar-dilution assay, S. aureus V41; settings: Staphylococcus aureus, V41
Method: as §1

[4] = tested on: Staphylococcus epidermidis 222; assay: MIC, standard agar-dilution assay, S. epidermidis 222
Method: as §1

[5] = tested on: Staphylococcus aureus S13E; assay: MIC, standard agar-dilution assay, S. aureus S13E
Method: as §1

[6] = tested on: Haemophilus influenzae 76; assay: MIC, standard agar-dilution assay, H. influenzae 76
Method: as §1

[7] = tested on: Staphylococcus aureus X400; assay: MIC, standard agar-dilution assay, S. aureus X400
Method: as §1

[8] = tested on: Haemophilus influenzae C.L.; assay: MIC, standard agar-dilution assay, H. influenzae C.L.
Method: as §1

[9] = tested on: Klebsiella pneumoniae X68; assay: MIC, standard agar-dilution assay, K. pneumoniae X68
Method: as §1

[10] = tested on: Streptococcus Group D 2041; assay: MIC, standard agar-dilution assay, Streptococcus Group D 2041; settings: GROUPD2041
Method: as §1

[11] = tested on: Staphylococcus epidermidis EPI1; assay: MIC, standard agar-dilution assay, S. epidermidis EPI1
Method: as §1

[12] = tested on: Staphylococcus aureus X1.1; assay: MIC, standard agar-dilution assay, S. aureus X1.1
Method: as §1

[13] = tested on: Streptococcus pyogenes C203; assay: MIC, standard agar-dilution assay, S. pyogenes C203; settings: Streptococcus pyogenes, C203
Method: as §1

[14] = tested on: Streptococcus pneumoniae Park I; assay: MIC, standard agar-dilution assay, S. pneumoniae Park I; settings: Streptococcus pneumoniae; agar-dilution; read-out: MIC
Method: as §1

[15] = agar-dilution, methicillin-resistant strain, read-out: MIC
[16] = agar-dilution, ampicillin-resistant strain, read-out: MIC
[17] = agar-dilution, ampicillin-sensitive strain, read-out: MIC

## CCC1OC(=O)CC(O)C(C)C(OC2OC(C)C(O)C(N(C)C)C2O)C(CCOc2ccccc2)CC(C)C(=O)C=CC(C)=CC1COC1OC(C)C(NCC#N)C(OC)C1OC (stereo not shown) [Compound 27, 4"-(Cyanomethyl)amino-4"-deoxy-20-DH-20-O-phenyl-desmycosin]
[1]; agar-dilution, read-out: MIC
  MIC: > 128 µg/mL
Escherichia coli EC14; agar-dilution, read-out: MIC
  MIC: > 128 µg/mL
[2]
  MIC: 8 µg/mL (≈ 9.01 µM)
[3]
  MIC: 1 µg/mL (≈ 1.13 µM)
[4]
  MIC: 0.5 µg/mL (≈ 0.563 µM)
[5]
  MIC: 0.5 µg/mL (≈ 0.563 µM)
[6]
  MIC: 8 µg/mL (≈ 9.01 µM)
[7]
  MIC: 0.5 µg/mL (≈ 0.563 µM)
[8]
  MIC: 4 µg/mL (≈ 4.5 µM)
[9]; agar-dilution, read-out: MIC
  MIC: > 128 µg/mL
[10]
  MIC: 16 µg/mL (≈ 18 µM)
[11]
  MIC: 0.5 µg/mL (≈ 0.563 µM)
[12]
  MIC: 0.5 µg/mL (≈ 0.563 µM)

## CCC1OC(=O)CC(O)C(C)C(OC2OC(C)C(O)C(N(C)C)C2O)C(CCOc2ccccc2)CC(C)C(=O)C=CC(C)=CC1COC1OC(C)C(N(C)CC#N)C(OC)C1OC (stereo not shown) [Compound 29, 4"-[(Cyanomethyl)methylamino]-4"-deoxy-20-DH-20-O-phenyl-desmycosin]
[1]
  MIC: > 128 µg/mL
Escherichia coli EC14
  MIC: > 128 µg/mL
[2]
  MIC: 32 µg/mL (≈ 35.5 µM)
[3]
  MIC: 2 µg/mL (≈ 2.22 µM)
[4]
  MIC: 2 µg/mL (≈ 2.22 µM)
[5]
  MIC: 2 µg/mL (≈ 2.22 µM)
[6]
  MIC: 32 µg/mL (≈ 35.5 µM)
[7]
  MIC: 2 µg/mL (≈ 2.22 µM)
[8]
  MIC: 16 µg/mL (≈ 17.7 µM)
[9]
  MIC: > 128 µg/mL
[10]
  MIC: 64 µg/mL (≈ 70.9 µM)
[11]
  MIC: 1 µg/mL (≈ 1.11 µM)
[12]
  MIC: 2 µg/mL (≈ 2.22 µM)

## CCC1OC(=O)CC(O)C(C)C(OC2OC(C)C(O)C(N(C)C)C2O)C(CCOc2ccccc2)CC(C)C(=O)C=CC(C)=CC1COC1OC(C)C(NC)C(OC)C1OC (stereo not shown) [Compound 31, 4"-Deoxy-20-DH-4"-methylamino-20-O-phenyl-desmycosin]
[1]; agar-dilution, read-out: MIC
  MIC: > 128 µg/mL
Escherichia coli EC14; agar-dilution, read-out: MIC
  MIC: > 128 µg/mL
[2]
  MIC: 2 µg/mL (≈ 2.32 µM)
[3]
  MIC: 0.5 µg/mL (≈ 0.579 µM)
[13]; agar-dilution, read-out: MIC
  MIC: 0.125 µg/mL (≈ 0.145 µM)
[4]
  MIC: 0.5 µg/mL (≈ 0.579 µM)
[5]
  MIC: 0.25 µg/mL (≈ 0.29 µM)
[7]
  MIC: 0.5 µg/mL (≈ 0.579 µM)
[8]
  MIC: 32 µg/mL (≈ 37.1 µM)
[9]; agar-dilution, read-out: MIC
  MIC: > 128 µg/mL
[14]
  MIC: 0.125 µg/mL (≈ 0.145 µM)
[10]
  MIC: 2 µg/mL (≈ 2.32 µM)
[12]
  MIC: 0.5 µg/mL (≈ 0.579 µM)

## CCC1OC(=O)CC(O)C(C)C(OC2OC(C)C(O)C(N(C)C)C2O)C(CCOc2ccccc2)CC(C)C(=O)C=CC(C)=CC1COC1OC(C)C(N(C)C)C(OC)C1OC (stereo not shown) [Compound 33, 4"-Deoxy-20-DH-4"-dimethylamino-20-O-phenyl-desmycosin]
[1]; agar-dilution, read-out: MIC
  MIC: > 128 µg/mL
Escherichia coli EC14; agar-dilution, read-out: MIC
  MIC: > 128 µg/mL
[2]
  MIC: 32 µg/mL (≈ 36.5 µM)
[3]
  MIC: 4 µg/mL (≈ 4.56 µM)
[4]; agar-dilution, read-out: MIC
  MIC: 2 µg/mL (≈ 2.28 µM)
[5]
  MIC: 4 µg/mL (≈ 4.56 µM)
[6]
  MIC: 64 µg/mL (≈ 73 µM)
[7]; [15]
  MIC: 2 µg/mL (≈ 2.28 µM)
[8]
  MIC: 64 µg/mL (≈ 73 µM)
[9]; agar-dilution, read-out: MIC
  MIC: > 128 µg/mL
[10]
  MIC: 64 µg/mL (≈ 73 µM)
[11]; agar-dilution, read-out: MIC
  MIC: 2 µg/mL (≈ 2.28 µM)
[12]
  MIC: 4 µg/mL (≈ 4.56 µM)

## CCC1OC(=O)CC(O)C(C)C(OC2OC(C)C(O)C(N(C)C)C2O)C(CCOc2ccccc2)CC(C)C(=O)C=CC(C)=CC1COC1OC(C)C(NC(C)C)C(OC)C1OC (stereo not shown) [Compound 35, 4"-Deoxy-20-DH-4"-isopropylamino-20-O-phenyldesmycosin]
[1]; agar-dilution, read-out: MIC
  MIC: > 128 µg/mL
Escherichia coli EC14; agar-dilution, read-out: MIC
  MIC: > 128 µg/mL
[2]
  MIC: 64 µg/mL (≈ 71.8 µM)
[3]
  MIC: 16 µg/mL (≈ 18 µM)
[4]
  MIC: 8 µg/mL (≈ 8.98 µM)
[5]
  MIC: 16 µg/mL (≈ 18 µM)
[6]; [16]
  MIC: 128 µg/mL (≈ 144 µM)
[7]
  MIC: 16 µg/mL (≈ 18 µM)
[8]; [17]
  MIC: 128 µg/mL (≈ 144 µM)
[9]; agar-dilution, read-out: MIC
  MIC: > 128 µg/mL
[10]; agar-dilution, read-out: MIC
  MIC: 128 µg/mL (≈ 144 µM)
[11]
  MIC: 8 µg/mL (≈ 8.98 µM)
[12]
  MIC: 8 µg/mL (≈ 8.98 µM)

## CCCNC1C(C)OC(OCC2C=C(C)C=CC(=O)C(C)CC(CCOc3ccccc3)C(OC3OC(C)C(O)C(N(C)C)C3O)C(C)C(O)CC(=O)OC2CC)C(OC)C1OC (stereo not shown) [Compound 38, 4"-Deoxy-20-DH-20-O-phenyl-4"-(n-propylamino)desmycosin]
[1]; agar-dilution, read-out: MIC
  MIC: > 128 µg/mL
Escherichia coli EC14; agar-dilution, read-out: MIC
  MIC: > 128 µg/mL
[2]; agar-dilution, read-out: MIC
  MIC: 16 µg/mL (≈ 18 µM)
[3]; agar-dilution, penicillin-resistant strain, read-out: MIC
  MIC: 16 µg/mL (≈ 18 µM)
[13]
  MIC: 4 µg/mL (≈ 4.49 µM)
[4]
  MIC: 8 µg/mL (≈ 8.98 µM)
[5]
  MIC: 8 µg/mL (≈ 8.98 µM)
[6]; [16]
  MIC: > 128 µg/mL
[7]; [15]
  MIC: 16 µg/mL (≈ 18 µM)
[8]; [17]
  MIC: > 128 µg/mL
[9]; agar-dilution, read-out: MIC
  MIC: > 128 µg/mL
[10]
  MIC: 64 µg/mL (≈ 71.8 µM)
[11]; agar-dilution, read-out: MIC
  MIC: 16 µg/mL (≈ 18 µM)
[12]; agar-dilution, read-out: MIC
  MIC: 16 µg/mL (≈ 18 µM)
